Measurements published in ChEMBL document CHEMBL1201862, “PubChem BioAssay data set” (2004).
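Grown in 96-well plates, cells were treated for 48 hours with each compound at five concentrations. Insufficient inhibition: endpoint recorded as highest concentration tested. The concentration for 50% growth inhibition is given as GI50.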 Activity calls are given as the source filed them. Rule as the data show it: active = GI50 up to about 1.1 µM and inactive = higher.

Columns and labels:
Experiment in all cases: NCI tumour cell line growth inhibition, 48 h
MDA-MB-435 = test system: MDA-MB-435
RPMI-8226 = test system: RPMI-8226
NCI-H226 = test system: NCI-H226
HCT-116 = test system: HCT-116
SR = test system: SR
HCC 2998 = test system: HCC 2998
TK-10 = test system: TK-10
EKVX = test system: EKVX
MCF7 = test system: MCF7
HT-29 = test system: HT-29
M14 = test system: M14
KM12 = test system: KM12
SK-MEL-28 = test system: SK-MEL-28
786-0 = test system: 786-0
NCI-H522 = test system: NCI-H522
RXF 393 = test system: RXF 393
HOP-92 = test system: HOP-92
NCI-H23 = test system: NCI-H23
MOLT-4 = test system: MOLT-4

| Structure (SMILES) | GI50 (MDA-MB-435) | GI50 (RPMI-8226) | GI50 (NCI-H226) | GI50 (HCT-116) | GI50 (SR) | GI50 (HCC 2998) | GI50 (TK-10) | GI50 (EKVX) | GI50 (MCF7) | GI50 (HT-29) | GI50 (M14) | GI50 (KM12) | GI50 (SK-MEL-28) | GI50 (786-0) | GI50 (NCI-H522) | GI50 (RXF 393) | GI50 (HOP-92) | GI50 (NCI-H23) | GI50 (MOLT-4) |
| --- | --- | --- | --- | --- | --- | --- | --- | --- | --- | --- | --- | --- | --- | --- | --- | --- | --- | --- | --- |
| O=C1c2c(Br)sc(Br)c2[C@H]2OC(=S)N[C@@H]12 | 2.96 µM (inactive) | 4.68 µM (inactive) | 17.1 µM (inactive) | 2.81 µM (inactive) | 1.67 µM (inactive) | 10.6 µM (inactive) | 20.2 µM (inactive) | 4.89 µM (inactive) | 9.38 µM (inactive) | 2 µM (inactive) | 1.95 µM (inactive) | 14.4 µM (inactive) | 2.79 µM (inactive) | 11.3 µM (inactive) | 1.69 µM (inactive) | 3.14 µM (inactive) | 11.9 µM (inactive) | 5.15 µM (inactive) | 2.17 µM (inactive) |
| CN(C)CCNC(=O)c1ccc(NCCCN(C)CCCNc2ccc(C(=O)NCCN(C)C)c3nc4ccc([N+](=O)[O-])cc4c(O)c23)c2c(O)c3cc([N+](=O)[O-])ccc3nc12 | 0.0861 µM (active) | < 0.01 µM (active) | < 0.01 µM (active) | < 0.01 µM (active) | 0.0311 µM (active) | 0.0347 µM (active) | 0.124 µM (active) | 0.301 µM (active) | < 0.01 µM (active) | < 0.0182 µM (active) | 0.5 µM (active) | 0.04 µM (active) | 0.157 µM (active) | < 0.0197 µM (active) | < 0.01 µM (active) | 0.101 µM (active) | 0.0431 µM (active) | 0.126 µM (active) | < 0.01 µM (active) |
| COC(=O)[C@@H]1Cc2cc(O)c(O)cc2C2(CCN(C)CC2)O1 | > 10 µM (inactive) | > 10 µM (inactive) | > 10 µM (inactive) | > 10 µM (inactive) | > 10 µM (inactive) | > 10 µM (inactive) | > 10 µM (inactive) | > 10 µM (inactive) | > 10 µM (inactive) | > 10 µM (inactive) | > 10 µM (inactive) | > 10 µM (inactive) | > 10 µM (inactive) | > 10 µM (inactive) | > 10 µM (inactive) | > 10 µM (inactive) | > 10 µM (inactive) | > 10 µM (inactive) | > 10 µM (inactive) |
| Nc1ccc(S(=O)(=O)Nc2nc3ccccc3nc2N2CCCCC2)cc1 | > 100 µM (inactive) | 58.9 µM (inactive) | > 100 µM (inactive) | 80.7 µM (inactive) | 60.5 µM (inactive) | 33.7 µM (inactive) | 37.6 µM (inactive) | > 100 µM (inactive) | 84.3 µM (inactive) | > 100 µM (inactive) | 91 µM (inactive) | 70.1 µM (inactive) | 92.9 µM (inactive) | > 100 µM (inactive) | 31.1 µM (inactive) | 55.2 µM (inactive) | 53 µM (inactive) | 36.1 µM (inactive) | 27.5 µM (inactive) |
| C[C@H](CCC(=O)NN)[C@H]1CC[C@H]2[C@@H]3CC[C@@H]4C[C@H](O)CC[C@]4(C)[C@H]3CC[C@]12C | 44.2 µM (inactive) | 20.7 µM (inactive) | > 74.6 µM (inactive) | 41 µM (inactive) | 18.6 µM (inactive) | 41.4 µM (inactive) | 38.3 µM (inactive) | 43 µM (inactive) | 31.7 µM (inactive) | 27.7 µM (inactive) | 25.4 µM (inactive) | 39.2 µM (inactive) | > 74.8 µM (inactive) | 36.4 µM (inactive) | 29.2 µM (inactive) | 21.4 µM (inactive) | > 86.5 µM (inactive) | 41.2 µM (inactive) | 10.4 µM (inactive) |
| CCOC(=O)Nn1c(C)nnc1-c1ccccc1 | > 100 µM (inactive) | > 100 µM (inactive) | > 100 µM (inactive) | > 100 µM (inactive) | > 100 µM (inactive) | > 100 µM (inactive) | > 100 µM (inactive) | > 100 µM (inactive) | > 100 µM (inactive) | > 100 µM (inactive) | > 100 µM (inactive) | > 100 µM (inactive) | – | > 100 µM (inactive) | > 100 µM (inactive) | > 100 µM (inactive) | > 100 µM (inactive) | > 100 µM (inactive) | > 100 µM (inactive) |
| [N-]=[N+]=NI1OC(=O)c2ccccc21 | 67.3 µM (inactive) | 24 µM (inactive) | > 100 µM (inactive) | > 100 µM (inactive) | 38.7 µM (inactive) | > 100 µM (inactive) | > 100 µM (inactive) | > 100 µM (inactive) | 93.5 µM (inactive) | > 100 µM (inactive) | > 100 µM (inactive) | > 100 µM (inactive) | 47.2 µM (inactive) | > 100 µM (inactive) | 17.3 µM (inactive) | 32.2 µM (inactive) | 44.9 µM (inactive) | > 100 µM (inactive) | 66.8 µM (inactive) |
| O=C(Cc1nc2ccc(C(=O)c3ccccc3)cc2nc1O)C(=O)Nc1ccccc1[N+](=O)[O-] | 38.9 µM (inactive) | 34.1 µM (inactive) | 13.8 µM (inactive) | 57 µM (inactive) | 29.2 µM (inactive) | 37.2 µM (inactive) | 98.9 µM (inactive) | 89.7 µM (inactive) | 50 µM (inactive) | 47.1 µM (inactive) | 92 µM (inactive) | 24 µM (inactive) | 94.8 µM (inactive) | 80.2 µM (inactive) | 34.4 µM (inactive) | 53.8 µM (inactive) | 65.9 µM (inactive) | 42.2 µM (inactive) | – |
| Cc1c(C)c2c(c(N)c1C#N)C(=O)N(CCc1ccccc1)C2=O | > 100 µM (inactive) | > 100 µM (inactive) | > 100 µM (inactive) | > 100 µM (inactive) | 38.5 µM (inactive) | > 100 µM (inactive) | > 100 µM (inactive) | > 100 µM (inactive) | > 100 µM (inactive) | – | > 100 µM (inactive) | > 100 µM (inactive) | > 100 µM (inactive) | > 100 µM (inactive) | > 100 µM (inactive) | > 100 µM (inactive) | > 100 µM (inactive) | – | 72.6 µM (inactive) |
| ClCCN(CCCl)c1ccc(CNCCCNCc2ccc(N(CCCl)CCCl)cc2)cc1 | 2.69 µM (inactive) | 3.52 µM (inactive) | 6.75 µM (inactive) | 4.13 µM (inactive) | 0.11 µM (active) | 2.1 µM (inactive) | 2.67 µM (inactive) | 2.69 µM (inactive) | 1.21 µM (inactive) | 1.87 µM (inactive) | 4.7 µM (inactive) | 1.99 µM (inactive) | 1.69 µM (inactive) | 2 µM (inactive) | 2.13 µM (inactive) | 1.59 µM (inactive) | 4.78 µM (inactive) | 3 µM (inactive) | – |
| c1ccc2c[n+](CCCCCCCCCC[n+]3ccc4ccccc4c3)ccc2c1 | > 10 µM (inactive) | > 10 µM (inactive) | > 3.34 µM (inactive) | > 10 µM (inactive) | > 10 µM (inactive) | > 10 µM (inactive) | > 10 µM (inactive) | 2.07 µM (inactive) | > 10 µM (inactive) | > 5.37 µM (inactive) | > 10 µM (inactive) | > 5.68 µM (inactive) | 7.43 µM (inactive) | > 10 µM (inactive) | 4.17 µM (inactive) | > 10 µM (inactive) | > 10 µM (inactive) | 1 µM (active) | – |
